From US12263155B2, “Combinations of monoamine oxidase inhibitors and serotonin receptor agonists and their therapeutic use” (Remedi, Inc., priority 2022, dated 2025)

Key:
Oxidase MAO-B Peripheral = target: T1, Oxidase MAO-B Peripheral (Rattus norvegicus, UniProt P19643); assay: NovaScreen ligand-binding screen, MAO-B; conditions: 10.0 nM and 100 nM
T1 construct: purchased NovaScreen
T1 sequence (P19643 1-520): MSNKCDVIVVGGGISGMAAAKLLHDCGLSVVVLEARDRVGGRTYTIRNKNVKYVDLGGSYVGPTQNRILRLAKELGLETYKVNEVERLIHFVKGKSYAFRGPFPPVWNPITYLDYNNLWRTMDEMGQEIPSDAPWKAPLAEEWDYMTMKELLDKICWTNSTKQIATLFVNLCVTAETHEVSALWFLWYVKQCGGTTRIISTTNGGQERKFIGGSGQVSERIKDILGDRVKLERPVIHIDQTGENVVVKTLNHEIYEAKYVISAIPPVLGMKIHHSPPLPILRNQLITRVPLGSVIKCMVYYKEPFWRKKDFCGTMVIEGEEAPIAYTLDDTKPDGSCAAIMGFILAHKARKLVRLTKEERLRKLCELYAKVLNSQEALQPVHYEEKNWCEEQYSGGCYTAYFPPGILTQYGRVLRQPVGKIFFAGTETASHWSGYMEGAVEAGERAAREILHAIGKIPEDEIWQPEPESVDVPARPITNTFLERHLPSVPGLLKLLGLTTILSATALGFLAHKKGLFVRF
Experimental: Methods: Investigational drug candidates CX157 were analyzed in NovaScreen's bank of ligand-binding reactions to test for specificity. CX157 was screened at concentrations of both 10.0 nM and 100 nM as potential competitors in binding reactions involving nine classes containing 69 binding sites. The following binding reactions are tested: Adenosine Non-selective, Adrenergic Alpha 1 Non-selective, Adrenergic Alpha 2 Non-selective, Adrenergic Beta Non-selective, Dopamine Transporter, Dopamine Non-selective, GABA A Agonist Site, GABA A BDZ alpha 1 site, GABA B, Glutamate AMPA Site (Ionotropic), Glutamate Kainate Site (Ionotropic), Glutamate NMDA Agonist Site (Ionotropic), Glutamate NMDA Glycine (Stry-insens Site) (Ionotrophic), Glycine Strychnine-sensitive, Histamine H1, Histamine H2, Histamine H3, Melatonin Non-selective, Muscarinic M1 (hr), Muscarinic M2 (hr), Muscarinic Non-selective Central, Muscarinic Non-selective Peripheral, Nicotinic (α-BnTx insensitive) Neuronal, Norepinephrine Transporter, Opioid Non-selective, Orphanin (hr), Serotonin Transporter, Serotonin Non-selective, Sigma Non-selective, Estrogen, Testosterone (cytosolic), Calcium Channel Type L (Dihydropyridine Site), Calcium Channel Type N, Potassium Channel ATP-Sensitive, Potassium Channel Ca2+ Act. VI, Potassium Channel I[Kr]

[1] = Phase I modified release tablets BID safety; format: in vivo, human; conditions: 125 mg and 175 mg BID, 7 days each
Experimental: Methods: A total of 20 Subjects (16 on CX157 and 4 on placebo) were dosed with CX157 Modified Release Tablets, 125 mg BID (total daily dose of 250 mg) or placebo in Period 1 for 7 days. Of the 20 subjects, 19 continued in Period 2 of the study where they received CX157 Modified Release Tablets, 175 mg BID (total daily dose of 350 mg) or placebo in the fed state for 7 days. Subjects who were randomized to CX157 125 mg BID in Period 1 received CX157 175 mg BID in Period 2, after a washout of 7 days. Subjects randomized to placebo in Period 1 received placebo in Period 2, after a washout of 7 days. Blood samples for PK analysis were collected during both periods of the study.

[2] = Phase I 14-day twice-daily pharmacokinetics; conditions: for concentration at 12 h: C12h
Experimental: Methods: The study was a Phase I, single-center, randomized, parallel-group, multiple-dose, placebo-controlled, pharmacodynamic, pharmacokinetic and safety study in healthy volunteers. To obtain 24 enrolled subjects, screening procedures and inclusion/exclusion criteria were evaluated for 54 subjects during a variable screening period of up to 28 days. Once enrolled, subjects were randomized to either CX157 10 mg, 20 mg or 40 mg or matching placebo administered twice daily for 14 consecutive days.
Formulations: Each natural/transparent Licaps® size 0 hard gelatin capsule contains 10 mg CX157 in Labrasol™; each capsule is banded with a green gelatin band comprised of gelatin NF and polysorbate-80 NF. CX157 Liquid Filled Capsules are packaged in white, opaque, high density polyethylene (HDPE) bottles with screw-top polypropylene child resistant caps. Each bottle contains 30 capsules. CX157 Liquid Filled Capsules, 5 and 10 mg are stored long-term at controlled room temperature conditions [15-30° C. (59-86° F.)].

[3] = healthy volunteers, 10 mg twice daily, Day 1, mean
[4] = healthy volunteers, 10 mg twice daily, Day 14, mean
[5] = healthy volunteers, 20 mg twice daily, Day 1, mean
[6] = healthy volunteers, 20 mg twice daily, Day 14, mean
[7] = healthy volunteers, 40 mg twice daily, Day 1, mean
[8] = healthy volunteers, 40 mg twice daily, Day 14, mean, N = 4
[9] = human, plasma, oral, 10 mg, healthy volunteers, 10 mg twice daily, Day 1, mean
[10] = human, plasma, oral, 10 mg, healthy volunteers, 10 mg twice daily, Day 14, mean
[11] = human, plasma, oral, 20 mg, healthy volunteers, 20 mg twice daily, Day 1, mean
[12] = human, plasma, oral, 20 mg, healthy volunteers, 20 mg twice daily, Day 14, mean
[13] = human, plasma, oral, 40 mg, healthy volunteers, 40 mg twice daily, Day 1, mean
[14] = human, plasma, oral, 40 mg, healthy volunteers, 40 mg twice daily, Day 14, mean, N = 4

For `O=S1(=O)c2ccc(F)cc2Oc2cc(OCC(F)(F)F)ccc21` [CX157, 3-fluoro-7(2,2,2-trifluorethoxy)phenoxathiine-10,10-dioxide], the “binding to MAO-B” value (Oxidase MAO-B Peripheral) was “did not bind to MAO-B”, the tolerability [1] was “well tolerated” and the AUC0-12h/Dose [2, 3] was 380. It also gave a Cmax/Cmin [2, 3] of 31.4 ratio, a Cmax/Dose [2, 3] of 137 and a Tmin [2, 3] of 10.7 h. It also gave an AUC0-12h/Dose [2, 4] of 753, a CSS [2, 4] of 8.1 ng/mL and a Cmax/Cmin [2, 4] of 6.64 ratio. For the same molecule, the Cmax/Dose [2, 4] was 185, the Tmin [2, 4] was 12 h and the AUC0-12h/Dose [2, 5] was 312. The Cmax/Cmin [2, 5] was 36.7 ratio, the Cmax/Dose [2, 5] was 128 and the Cmin [2, 5] was 1.13 ng/mL. For the same molecule, the Tmin [2, 5] was 12 h, the AUC0-12h/Dose [2, 6] was 400 and the Cmax/Cmin [2, 6] was 10.8 ratio. For the same molecule, the Cmax/Dose [2, 6] was 104, the Cmin [2, 6] was 3.05 ng/mL and the Tmin [2, 6] was 12 h. For the same molecule, the “% AUCextrap” value ([2]; healthy volunteers, 20 mg twice daily, Day 14, mean, N = 2) was 19.0c %, the AUC0-12h/Dose [2, 7] was 363 and the Cmax/Cmin [2, 7] was 28.2 ratio. The Cmax/Dose [2, 7] was 136, the Cmin [2, 7] was 2.52 ng/mL and the Tmin [2, 7] was 12 h. For the same molecule, the “% AUCextrap” value [2, 8] was 16.5%, the AUC0-12h/Dose [2, 8] was 687 and the CSS [2, 8] was 29.6 ng/mL. For the same molecule, the Cmax/Cmin [2, 8] was 15.6 ratio, the Cmax/Dose [2, 8] was 320 and the Cmin [2, 8] was 8.8 ng/mL. It also gave a Tmin [2, 8] of 12 h, a half-life ([2]; human, plasma, oral) of 33.3 to 35.3 h and an AUC(0-t) ([2]; human, plasma, oral, 10 mg, AUC0-12h, healthy volunteers, 10 mg twice daily, Day 1, mean) of 50 ng·h/mL. For the same molecule, the AUC(0-t) ([2]; human, plasma, oral, 10 mg, AUC0-12h, healthy volunteers, 10 mg twice daily, Day 14, mean) was 97 ng·h/mL, the AUC(0-t) ([2]; human, plasma, oral, 10 mg, AUClast, healthy volunteers, 10 mg twice daily, Day 14, mean) was 180 ng·h/mL and the concentration at 12 h [2, 9] was 0.63 ng/mL. It also gave a concentration at 12 h [2, 10] of 3 ng/mL, a Cmax [2, 9] of 18.1 ng/mL and a Cmax [2, 10] of 24.2 ng/mL. For the same molecule, the concentration at 1 day ([2]; human, plasma, oral, 10 mg, Cmin, healthy volunteers, 10 mg twice daily, Day 1, mean) was 0.6 ng/mL, the concentration at 14 day ([2]; human, plasma, oral, 10 mg, Cmin, healthy volunteers, 10 mg twice daily, Day 14, mean) was 3 ng/mL and the Tmax ([2]; human, plasma, oral, 10 mg, healthy volunteers, 10 mg twice daily, Day 1, median) was 1 h. For the same molecule, the Tmax ([2]; human, plasma, oral, 10 mg, healthy volunteers, 10 mg twice daily, Day 14, median) was 1 h, the AUC(0-inf) ([2]; human, plasma, oral, 20 mg) was 433 ng·h/mL and the half-life ([2]; human, plasma, oral, 20 mg) was 33.3 h. For the same molecule, the AUC(0-t) ([2]; human, plasma, oral, 20 mg, AUC0-12h, healthy volunteers, 20 mg twice daily, Day 1, mean) was 83.5 ng·h/mL, the AUC(0-t) ([2]; human, plasma, oral, 20 mg, AUC0-12h, healthy volunteers, 20 mg twice daily, Day 14, mean) was 115 ng·h/mL and the AUC(0-t) ([2]; human, plasma, oral, 20 mg, AUClast, healthy volunteers, 20 mg twice daily, Day 14, mean) was 191 ng·h/mL. It also gave a concentration at 12 h [2, 11] of 1.13 ng/mL, a concentration at 12 h [2, 12] of 3.05 ng/mL and a concentration at 14 day ([2]; human, plasma, oral, 20 mg, CSS, healthy volunteers, 20 mg twice daily, Day 14, mean) of 9.6 ng/mL. For the same molecule, the Cmax [2, 11] was 32.3 ng/mL, the Cmax [2, 12] was 30.1 ng/mL and the Tmax ([2]; human, plasma, oral, 20 mg, healthy volunteers, 20 mg twice daily, Day 1, median) was 1.25 h. The Tmax ([2]; human, plasma, oral, 20 mg, healthy volunteers, 20 mg twice daily, Day 14, median) was 1.5 h, the AUC(0-inf) ([2]; human, plasma, oral, 40 mg) was 712 ng·h/mL and the half-life ([2]; human, plasma, oral, 40 mg) was 35.3 h. The AUC(0-t) ([2]; human, plasma, oral, 40 mg, AUC0-12h, healthy volunteers, 40 mg twice daily, Day 1, mean) was 186 ng·h/mL, the AUC(0-t) ([2]; human, plasma, oral, 40 mg, AUC0-12h, healthy volunteers, 40 mg twice daily, Day 14, mean, N = 4) was 355 ng·h/mL and the AUC(0-t) ([2]; human, plasma, oral, 40 mg, AUClast, healthy volunteers, 40 mg twice daily, Day 14, mean, N = 4) was 602 ng·h/mL. For the same molecule, the concentration at 12 h [2, 13] was 2.52 ng/mL, the concentration at 12 h [2, 14] was 8.8 ng/mL and the concentration at 14 day ([2]; human, plasma, oral, 40 mg, CSS, healthy volunteers, 40 mg twice daily, Day 14, mean, N = 4) was 29.6 ± 19.6 ng/mL. The Cmax [2, 13] was 69.5 ng/mL, the Cmax [2, 14] was 166 ± 179 ng/mL and the Tmax ([2]; human, plasma, oral, 40 mg, healthy volunteers, 40 mg twice daily, Day 1, median) was 1.08 h. The Tmax ([2]; human, plasma, oral, 40 mg, healthy volunteers, 40 mg twice daily, Day 14, median, N = 4) was 0.5 h and the AUC(0-t) ([2]; human, plasma, oral, 40 mg, mean AUC0-12h, 40 mg twice daily, Day 14) was 355 ± 235 ng·h/mL.
